Test results from patent US6368604B1, “Non-pyrogenic derivatives of lipid A” (priority 1997, dated 2002).

Legend:
mice = settings: cited from earlier work
HIV-1 = settings: in vivo; cited from earlier work
human PBMCs [1] = experiment: Human PBMC activation assay: TNFα, IL-1β, IL-6 in culture supernatants by capture ELISA; type: cell-based; settings: human PBMC culture supernatants after stimulation, 1 μg/ml, 8 hr
Description: 50 ml of whole blood is mixed with an equal volume of RPMI (Life Technologies) and PBMCs are isolated by density gradient using lymphocyte separation medium according to the manufacturer's directions (Organon). The PBMCs are washed twice with RPMI then resuspended in 6 ml of ice cold sterile water and placed on ice for 30 sec to lyse the erythrocytes. The osmolarity is adjusted by adding 2 ml of ice cold 3.5% (w/v) NaCl; the PBMCs are harvested by centrifugation, washed with RPMI and resuspended in complete medium (CM; RPMI containing pyruvate, glutamine, PenStrep, and 10% endotoxin-free human AB serum (Life Technologies) at a density of 6×10^6 PBMCs/ml. CM containing the preparations to be assayed are placed into duplicate wells of a 96-well flat bottom culture late (Costar) at double the target final concentration. An equal volume of CM containing the PBMCs then is added to these wells and the culture plates are incubated at 37° C. in 5% CO2 for 8 hr. The supernatants are then removed and stored at […] Quantitation of TNFα, IL-1β, IL-6, MIP-1α, MIP-1β and RANTES in these culture supernatants is achieved by capture ELISA (R&D Systems).
(§1) Quantitation of TNFα, IL-1β, IL-6, MIP-1α and MIP-1β in these culture supernatants was achieved by capture ELISA (R&D Systems).
This observation was reproduced using four unrelated PBMC donors and two separate LPS preparations. […]

HIV-1BAL = experiment: Replication of HIV-1BAL in human PBMC-derived monocytes (p24 ELISA); type: cell-based; settings: 1000, 100 and 10 ng/ml for 24 hours before infection; p24 after a further 19 days
Description: FIG. 5. Lipid A antagonist, lipid IVA, inhibits HIV replication. PBMCs were treated with synthetic lipid IVA at 1000 ng/ml, 100 ng/ml and 10 ng/ml for 24 hours. The treated cells were subsequently infected with 0.200 ng of HIV-1BAL (Cocchi et al, supra) for 2 hours, washed twice and incubated for a further 19 days. Culture supernatants were then collected and the level of p24 in these supernatants was measured by ELISA (R&D Systems). […] Figure Legend:
To investigate the utility of the aforementioned findings, we investigated whether commercially available synthetic lipid IVA (ICN Inc.) suppressed the replication of HIV-1BAL in human PBMC-derived monocytes. Therefore, PBMCs were obtained as outlined in Section 6, see above, and placed into 12 well culture flat-bottom plate and incubated in CM (see example 1) for […] at 37° C. in 5% Co2. Non-adherent cells were removed and the cells were given fresh media every 2 days. After 6 days, the adherent PBMCs were treated with synthetic lipid IVA at 1000 ng/ml, 100 ng/ml and 10 ng/ml for 24 hours. […] Culture supernatants were then collected and the level of p24 in these supernatants was measured by ELISA (R&D Systems).
PBMC-derived monocytes were obtained as outlined in Section 8, see above. […] Culture supernatants were then collected and the level of p24 in these supernatants was measured by ELISA (R&D Systems).

human PBMCs [2] = experiment: β chemokine (MIP-1α, MIP-1β, RANTES) secretion from human PBMCs, dose and time course, capture ELISA; type: cell-based
human PBMCs [3] = experiment: LPS antagonist activity: TNFα from human PBMCs stimulated with W3110 LPS mixed with test preparation; type: cell-based; settings: 1 μg/ml mixed with W3110 LPS 10 ng/ml, 8 hr
Description: as §1
W3110 LPS (also cultured at 37° C.) from 1 ng/ml to 100 ng/ml alone and W3110 LPS (10 ng/ml) mixed with synthetic lipid IVA (1 μg/ml) were used as controls.

## 2,3-diacyl-glucosamine-1-phosphate [lipid X]
mice
  pyrogenicity / toxicity in mice: non-pyrogenic

## Cc1cn([C@H]2C[C@H](N=[N+]=[N-])[C@@H](CO)O2)c(=O)[nH]c1=O [AZT, 3′-azido-2′,3′-dideoxythymidine]
HIV-1
  effect on viral load: about 1 log reduction

## CCCCCCCCCCC[C@@H](O)CC(=O)N[C@H]1[C@H](OC[C@H]2O[C@H](OP(=O)(O)O)[C@H](NC(=O)C[C@H](O)CCCCCCCCCCC)[C@@H](OC(=O)C[C@H](O)CCCCCCCCCCC)[C@@H]2O)O[C@H](CO)[C@@H](OP(=O)(O)O)[C@@H]1OC(=O)C[C@H](O)CCCCCCCCCCC [Lipid IVA]
Human PBMCs [1]
  IL-1β: 13 ± 1 pg/mL
  IL-6: 7581 ± 20 pg/mL
HIV-1BAL
  replication of HIV-1BAL (p24 in supernatants): suppresses the replication of HIV-1BAL in a dose-dependent manner
Human PBMCs [2]
  induction of β chemokines: WITHOUT INDUCING […] OF β CHEMOKINES
Human PBMCs [3]
  TNFα: <30 pg/mL

## CCCCCC/C=C/CCCCCC(=O)O[C@H](CCCCCCCCCCC)CC(=O)NC1C(OCC2OC(OP(=O)(O)O)C(NC(=O)CC(=O)CCCCCCCCCCC)C(OC(=O)C[C@H](O)CCCCCCC)C2O)OC(CO)C(OP(=O)(O)O)C1OC(=O)C[C@H](O)CCCCCCC (some centres unmarked) [RsDPLA, R. sphaeroides diphosphoryl lipid A]
Human PBMCs [2]; human PBMCs
  level of RANTES after stimulation: not significantly elevated
Human PBMCs [2]; human PBMCs, various doses
  MIP-1α secretion: stimulated the secretion of MIP-1α and MIP-1β in a dose-dependent manner
  MIP-1β secretion: stimulated the secretion of MIP-1α and MIP-1β in a dose-dependent manner
Human PBMCs [2]; supernatants 8, 16, 24 and 48 hr after stimulation
  time of peak production of chemokines (MIP-1α, MIP-1β) after stimulation: 24 h
